Each block holds one compound with its values, some of them ahead of it. Residues, ends and D or L forms follow the SMILES beside them.
Tests used:
malaria mosquito P1 PR = assay: Electrophysiological response to 200 pM adenosine with PR antagonist admixed; assay type: cell-based, Anopheles gambiae
Experimental: (§1) The tip recording method was used to record action potentials (spikes) from sensory cells in sensilla on A. gambiae labellum lobes.
Sensilla were exposed to test compounds and PR antagonists for ca. 2-4 s and spikes were counted in the first 2 s of recordings. Up to 4 test compounds were tested on a sensillum to evaluate potential agonists, each presented at 200 pM. To study responses as a function of dose for agonists ATP, adenosine, AMP, AMP-CPP and ATP+adenosine, up to 7 recordings were made at increasing doses of agonist from the same sensillum. Unless otherwise stated, recordings were made throughout from 4 to 16 sensilla from individual 4-6-day-old females per dose of agonist, antagonist and metal ion modulator. For example, a response curve established over 6 doses of an antagonist using 8 sensilla per dose involved recording from a sensillum of 48 separate mosquitoes. A given dose of a PR antagonist or metal ion modulator was only presented once to a sensillum. Two-second recordings were imported as ASCII files into DataView software for analysis of spike amplitude. […]
Pairwise comparisons of A. gambiae electrophysiological (EP) responses to ATP and adenosine alone and combined with a given dose of PR antagonist, EP responses to ATP alone and combined with a given dose of a metal modulator, and EP responses to ATP prior to and after exposure of a sensillum to a given dose of a PR antagonist were made with a one-tailed Wilcoxon signed-rank test for data showing a non-normal distribution, with a paired Student's t-test for normally distributed data showing homogeneous variance and with a Welch's t-test for normally distributed data showing non-homogeneous variance. […] Percent feeding inhibition induced by PR antagonists in A. stephensi was calculated using Abbott's formula.

[1] = tested on: A. gambiae mouthpart ATP-sensitive receptor; assay: Electrophysiological response to 200 pM ATP with PR antagonist admixed; assay type: cell-based, Anopheles gambiae; settings: for effect on EP response to ATP, in words: 200 pM ATP, suramin at 1 nM; for ID95 in nM (±s.e.m.): increasing doses admixed to 200 pM ATP
Experimental: as §1
Sensilla were exposed to test compounds and PR antagonists for ca. 2-4 s and spikes were counted in the first 2 s of recordings. Up to 4 test compounds were tested on a sensillum to evaluate potential agonists, each presented at 200 pM. To study responses as a function of dose for agonists ATP, adenosine, AMP, AMP-CPP and ATP+adenosine, up to 7 recordings were made at increasing doses of agonist from the same sensillum. Unless otherwise stated, recordings were made throughout from 4 to 16 sensilla from individual 4-6-day-old females per dose of agonist, antagonist and metal ion modulator. For example, a response curve established over 6 doses of an antagonist using 8 sensilla per dose involved recording from a sensillum of 48 separate mosquitoes. A given dose of a PR antagonist or metal ion modulator was only presented once to a sensillum. Two-second recordings were imported as ASCII files into DataView software for analysis of spike amplitude. Differences in spike amplitude generated by stimulation of one 8v sensillum/female with 1 mM sucrose (n=294 spikes from 6 females) 200 pM adenosine (n=207 spikes from 7 females) and 200 pM ATP (n=192 spikes from 7 females) were compared by measuring the spike amplitude in mV between the highest point of depolarisation and the lowest point of hyperpolarisation.
Pairwise comparisons of A. gambiae electrophysiological (EP) responses to ATP and adenosine alone and combined with a given dose of PR antagonist, EP responses to ATP alone and combined with a given dose of a metal modulator, and EP responses to ATP prior to and after exposure of a sensillum to a given dose of a PR antagonist were made with a one-tailed Wilcoxon signed-rank test for data showing a non-normal distribution, with a paired Student's t-test for normally distributed data showing homogeneous variance and with a Welch's t-test for normally distributed data showing non-homogeneous variance. Effects on feeding of adding ATP, AMP-CPP, adenosine, ATP+adenosine, AMP and ADP-βS, CPT with ATP or adenosine, TMP with ATP+adenosine, TMP+CPT with ATP+adenosine to the FS for A. gambiae, and of adding PR antagonists with ATP to the FS for A. stephensi were compared using one-tailed Mann-Whitney U-test or Welch's t-test, depending on data distribution; Holm's FWEC was applied where treatment comparisons involved the same positive control. Percent feeding inhibition induced by PR antagonists in A. stephensi was calculated using Abbott's formula.
Dose-response models fitted to mosquito data were generated using the ‘drm’ command in the “drc” R package (version 2.5-12). Best fitting models (goodness of fit) and effects of dose of a compound were assessed using, respectively, ‘modelFit’ and ‘noEffect’ functions in the same R package. A 3-parameter logistic model (L3) was fitted to spike-counts recorded to increasing doses of adenosine, AMP, ATP and AMP-CPP. Spike numbers recorded in response to 200 pM ATP with increasing doses of PR antagonists added were analysed using a 4-parameter log-logistic model (LL.4) for A-317491 and spinorphin, using a 4-parameter Weibull model (W1.4) for PPADS, RB-2 and TMP, and using a 3-parameter log-logistic model (LL.3) for suramin. An L3 model was fitted to proportions of females feeding on increasing doses of ATP. Feeding rates on 20 μM ATP with increasing doses of a PR antagonist added were analysed using a 4-parameter log-logistic model (LL.4) with the median of the positive control (20 μM ATP) fixed as the upper asymptote. Response dynamics in 3-parameter models are related to the slope b, the upper asymptote, and inflexion point of the model e (the ED50 value), whereas 4 parameter models also include the lower asymptote parameter. […]

A. gambiae = assay: Membrane feeding assay, A. gambiae; assay type: in vivo, Anopheles gambiae; settings: for % reduction in feeding: with 20 μM ATP; for effect on feeding on solution containing ATP, in words: 20 μM ATP, CPT at 10 μM
Experimental: (§2) Experiments with A. gambiae and A. stephensi were made in a climate chamber at 28° C. and 80% RH during the last 6 hours of scotophase. As a sugar meal can interfere with the blood meal by reducing the number of females that feed, the sucrose solution supplied in rearing cages to mosquitoes employed for feeding experiments was reduced to 5%. […] The 5% sucrose solution was presented to mosquitoes from emergence on four 1 cm diam. cotton dental rolls (Hartmann A G, Neuhausen, Switzerland) inserted in 10 ml upturned glass vials placed in holes at each corner of the rearing cage ceiling. Cotton rolls were turned daily in vials and renewed every two days. Mosquitoes were not fed blood and were deprived of sucrose 17 to 20 hours before experiments. Thirty min before a feeding experiment, between 10-25, 6-day-old females that responded to activation by human breath were removed with a mouth aspirator from the rearing cage wall and placed in polystyrol cylinders with the floor cut out (10 cm dm×15 cm high; Semadeni, Ostermundigen, Switzerland) that served as feeding cages. Each cage was covered with mosquito netting at one end and a soft polyurethane lid at the other.
(§3) Mosquitoes were fed for 30 min using a feeding system (Hemotek®, Hemotek Ltd, Blackburn, UK) consisting of 3.5 ml stainless steel reservoirs 37 mm in diameter covered with a 60-90 μm thick silicone-impregnated membrane (Kröber and Guerin, 2007 in “Feeding assays for hard ticks”, Trends in parasitology 23, 445-449; doi 10.1016/j.pt.2007.07.010). Feeding reservoirs reached a temperature of 37° C. within 10 min and were placed on the netting of feeding cages. Mosquitoes were activated using a 200 ms pulse of pure CO2 (volume 6.25 ml) from a pressurised cylinder (Carbagas, Switzerland) using a solenoid valve that caused the CO2 level in the feeding cage to rise to at least 1,500 ppm. Between 3 and 4 sets of 10 feeding cages held in a custom-built Ertacetal® POM frame were tested per day, depending of the number of female mosquitoes available from the colony.
(§4) All compounds were tested in a mosquito feeding solution (FS) consisting of 25 mM dextrose, 25 mM NaCl buffered with 8.93 mM NaHCO3 adjusted to pH 7.4. Feeding responses of A. gambiae and A. stephensi to ATP as a function of dose were tested with between 7 to 10 feeding cages per dose. Each feeding experiment with an antagonist systematically included a treatment containing the FS as negative control along with a treatment containing the FS with 20 pM ATP added as positive control for A. gambiae and with 160 pM ATP added as positive control for A. stephensi. These positive and negative controls permitted to monitor any effect of experimental day on feeding responses as a function of dose for antagonists that were recorded over several days. […] Four to 10 cages each with 10 to 29 mosquitoes were tested per antagonist dose. […] The number of feeding cages used to test other compounds and their mixtures as feeding stimulants or as feeding inhibitors is listed on Table 6. The percentage of fed mosquitoes was estimated by visual inspection of abdominal distention that is indicative of engorgement.
(§5) Pairwise comparisons of A. gambiae electrophysiological (EP) responses to ATP and adenosine alone and combined with a given dose of PR antagonist, EP responses to ATP alone and combined with a given dose of a metal modulator, and EP responses to ATP prior to and after exposure of a sensillum to a given dose of a PR antagonist were made with a one-tailed Wilcoxon signed-rank test for data showing a non-normal distribution, with a paired Student's t-test for normally distributed data showing homogeneous variance and with a Welch's t-test for normally distributed data showing non-homogeneous variance. […]

A. stephensi = assay: Membrane feeding assay, A. stephensi; assay type: in vivo, Anopheles stephensi
Experimental: as §2, §3
as §4, with “with 20 pM ATP added as positive control for A. gambiae and with 160 pM ATP added as positive control for A. stephensi.” left out
as §5

- effect on EP response to ATP, in words [1]: inhibited
- Mean no. of spikes per 2 s (±s.e.m.), ATP + antagonist ([1]; antagonist 1 nM + 200 pM ATP): 9.8 spikes per 2 s
- ID95 in nM (±s.e.m.) [1]: 0.43 nM
- ID95 in nM (±s.e.m.) ([1]; listed as spinorphin): ca. 0.4 nM
SMILES: CC(C)C[C@H](N)C(=O)N[C@H](C(=O)N[C@H](C(=O)N[C@@H](Cc1ccc(O)cc1)C(=O)N1CCC[C@H]1C(=O)N[C@@H](Cc1c[nH]c2ccccc12)C(=O)N[C@H](C(=O)O)[C@@H](C)O)C(C)C)C(C)C [Spinorphin, L-leucyl-L-valyl-L-valyl-L-tyrosly-L-prolyl-L-tryptophyl-L-threonine] (H-LVVYPWT-OH)
- % reduction in feeding (A. gambiae; 100 nM): (100 nM, 27.31%)
- effect on feeding on solution containing ATP, in words (A. gambiae): inhibited feeding
- % fed mosquitoes (mean ± s.e.m.), ATP + antagonist (A. gambiae; antagonist 100 nM + 20 μM ATP): 46.62%

- ID50/ID95: block at maximum dose tested ([1]; maximum dose 1 μM, admixed to 200 pM ATP): No block (1 μM)
SMILES: Clc1cccc(-c2nnnn2Cc2cccnc2)c1Cl [A-438079, 3-[[5-(2,3-dichlorophenyl)tetrazol-1-yl]methyl]pyridine]
- Mean no. of spikes per 2 s (±s.e.m.), ATP + antagonist ([1]; antagonist 1000 nM + 200 pM ATP): 22.57 spikes per 2 s
- % reduction in feeding (A. gambiae; 20 μM): (20 μM, 30.74%)
- % fed mosquitoes (mean ± s.e.m.), ATP + antagonist (A. gambiae; antagonist 20 μM + 20 μM ATP): 48.65%

Second part, the compound before the results:

SMILES: Cn1c(=O)c2[nH]cnc2n(C)c1=O [Theophylline, 1,3-dimethylxanthine]
- EP response, adenosine theophylline combination (malaria mosquito P1 PR; 1 μM theophylline + 200 pM adenosine): 17.63±4.48 spikes/2s

SMILES: Cn1c(=O)c2[nH]c(C3CCCC3)nc2n(C)c1=O [CPT, 8-cyclopentyl-1,3-dimethylxanthine]
- effect on EP response to ATP, in words [1]: not
- % Engorged mosquitoes (A. gambiae; 10 μM CPT + 20 μM ATP): 65.4 ± 10.2%
- % Engorged mosquitoes (A. gambiae; 10 μM CPT + 1 mM Adenosine): 48.7 ± 7.0%
- effect on feeding on adenosine, in words (A. gambiae; 10 μM CPT, 1 mM adenosine in feeding solution): significantly inhibited
- effect on feeding on solution containing ATP, in words (A. gambiae): not
- effect on EP response to adenosine, in words (malaria mosquito P1 PR; 200 pM adenosine, suramin at 1 nM): inhibited
- duration of inhibition of the response to adenosine (malaria mosquito P1 PR; adenosine presented again approximately 2 min after antagonist): at least 2 min

SMILES: Cc1nc(/N=N/c2ccc(S(=O)(=O)O)cc2S(=O)(=O)O)c(COP(=O)(O)O)c(C=O)c1O [PPADS, pyridoxal phosphate-6-azophenyl-2′,4′-disulfonic acid]
- Mean no. of spikes per 2 s (±s.e.m.), ATP + antagonist ([1]; antagonist 50 nM + 200 pM ATP): 8.13 spikes per 2 s
- ID95 in nM (±s.e.m.) [1]: 12.66 nM
- effect on feeding on solution containing ATP, in words (A. gambiae): inhibited feeding
- % fed mosquitoes (mean ± s.e.m.), ATP + antagonist (A. gambiae; antagonist 100 μM + 20 μM ATP): 33.39%
- % Fed females (mean ± s.e.m.) (A. stephensi; 800 μM, feeding solution with 160 μM ATP): 37.29 ± 3.75%
- inhibition at 800 µM (A. stephensi; Anopheles stephensi, 800 μM, Abbott's formula): 48.9%
- effect on feeding on solution containing ATP, in words (A. stephensi; doses as in Table 8): inhibited feeding

Reference: patent US20250057791A1, “PROTECTION AGAINST ARTHROPOD PARASITES WITH PURINERGIC RECEPTOR (OPR) ANTAGONISTS” (priority 2021, published 2025)
